{
  "source": "patent US20140088306A1",
  "about": "“RADIOACTIVE FLUORINE-LABELED QUINOXALINE COMPOUND” (Nihon Medi-Physics Co., Ltd., priority 2012, published 2014)",
  "key": {"[1]": {"tested_on": "amyloid plaques in the brain", "sequence (P05067 672-711 limits assumed)": "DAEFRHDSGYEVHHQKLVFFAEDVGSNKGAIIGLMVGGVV", "assay": "Ex vivo autoradiography using Alzheimer's disease model mouse (Example 9)", "format": "in vivo", "conditions": "Tg2576 mouse (24-month old) vs normal mouse; tail vein; 1 hour after administration", "experimental": "To confirm whether the compound 2 has the performance capable of visualizing amyloid plaques in the brain, an image was taken by ex vivo autoradiography in a Tg2576 mouse as one of Alzheimer's disease model animals.\n[^18F]D3 (55.5 MBq (1.5 mCi)/200 μL) was administered to a Tg2576 mouse (24-month old, female) and a normal mouse (24-month old, female) through their tail vein. Each mouse was sacrificed 1 hour after administration, and the brain was removed, embedded in a carboxymethylcellulose solution, and frozen in a dry ice-hexane bath, followed by preparing frozen sections having a thickness of 30 μm using a cryostat (Leica). The resultant brain tissue sections were each placed on an imaging plate (Model BAS-SR, from Fujifilm Corporation) for 30 minutes for exposure, and the respective autoradiographs were obtained using an image analyzer (Bio Imaging Analyzer Model BAS5000, from Fujifilm Corporation). The same sections were each stained with thioflavin S ([…]), washed, and observed under a fluorescent microscope."}, "[2]": {"assay": "In vivo radioactivity distribution experiment (Example 8)", "conditions": "ddY mice, tail vein, SD in parenthesis", "experimental": "Through the tail vein of ddY mice (male, 5 week-old) was injected each of a 10 volume % ethanol-containing saline solution of [^18F]E3 (45.4 kBq, 100 μL), a 10 volume % ethanol-containing saline solution of [^18F]D3 (38.2 kBq, 100 μL), a 10 volume % ethanol-containing saline solution of [^18F]E1 (45.1 kBq, 100 μL), and a 10 volume % ethanol-containing saline solution of [^18F]E2 (40.6 kBq, 100 μL). Five mice were used for each group and sacrificed 2, 10, 30, and 60 minutes after administration to remove major organs. The blood and organs were weighed and further measured for radioactivity using a γ counter. The amount of radioactivity per unit mass was measured in each organ to evaluate radioactivity distribution."}, "[3]": {"tested_on": "amyloid plaques", "sequence (P05067 672-711 limits assumed)": "as above", "assay": "Autoradiography using postmortem brain section of patient with Alzheimer's disease (Example 7)", "format": "binding, human (Alzheimer's disease patient)", "conditions": "brain section (temporal lobe) of Alzheimer's disease patient; 0.37 MBq/100 μL, 1 hour", "experimental": "A postmortem autopsy brain section (temporal lobe) of a patient with Alzheimer's disease was incubated together with each of [^18F]E3, [^18F]D3, [^18F]E1, and [^18F]E2 (0.37 MBq/100 μL each) at room temperature for 1 hour. The resultant was washed with a 50 volume % ethanol aqueous solution (2 minutes×2) and water (2 minutes×2), and after drying, the section was contacted with BAS imaging plate (from Fujifilm Corporation) for 1.5 hours. The image of autoradiography was obtained using BAS5000 scanner system (from Fujifilm Corporation).\nA section adjacent to the brain section used was immunostained in the following manner.\nFirst, a paraffin-embedded brain section of the Alzheimer's disease patient (temporal lobe, 6 μm in thickness) was incubated with xylene (15 minutes×2), ethanol (1 minute×2), a 90 volume % ethanol aqueous solution (1 minute×2), and a 70 volume % ethanol aqueous solution (1 minute×1) in that order for complete deparaffinization, and then washed in water (2.5 minutes×2). Thereafter, the section was subjected to autoclave treatment for 15 minutes in 0.01 mol/L citrate buffer solution (pH 6.0). The resultant was incubated in PBS-Tween20 (5 minutes×2), and a mouse anti-Aβ1-42 primary monoclonal antibody (from Wako Pure Chemical Industries Ltd.) was then added thereto, which was then incubated at room temperature overnight. The resultant was incubated in PBS-Tween20 (2 minutes×3), and a biotin-goat anti-mouse IgG (from Funakoshi Co., Ltd.) was then added thereto, which was then incubated at room temperature for 1 hour. The resultant was incubated in PBS-Tween20 (5 minutes×3), and a streptavidin-peroxidase complex (from Funakoshi Co., Ltd.) was added thereto, which was then incubated at room temperature for 30 minutes. In addition, the resultant was incubated in PBS-Tween20 (2 minutes×3); 3,3′-diaminobenzidine was added thereto, which was then incubated at room temperature for 30 minutes; and after washing with water, the section was observed under a microscope to provide an immunostained image (FIG. 10)."}},
  "data": [
    {"substance": "4-(6-(2-[^18F]Fluoroethoxy)quinoxalin-2-yl)-N,N-dimethylaniline [[^18F]D3]", "values": [
      {"measurement": "visualization of amyloid plaques in the brain, ex vivo autoradiography", "setting": "[1]", "value": "could visualize amyloid plaques in the brain"},
      {"measurement": "Radioactivity Amount, Blood", "setting": "[2]; 2 min. after", "value": "2.66 (0.50) % injected dose/g"},
      {"measurement": "Radioactivity Amount, Blood", "setting": "[2]; 10 min. after", "value": "2.29 (0.25) % injected dose/g"},
      {"measurement": "Radioactivity Amount, Blood", "setting": "[2]; 30 min. after", "value": "2.98 (0.29) % injected dose/g"},
      {"measurement": "Radioactivity Amount, Blood", "setting": "[2]; 60 min. after", "value": "3.26 (0.37) % injected dose/g"},
      {"measurement": "Radioactivity Amount, Bone", "setting": "[2]; 2 min. after", "value": "2.65 (0.61) % injected dose/g"},
      {"measurement": "Radioactivity Amount, Bone", "setting": "[2]; 10 min. after", "value": "2.75 (0.36) % injected dose/g"},
      {"measurement": "Radioactivity Amount, Bone", "setting": "[2]; 30 min. after", "value": "2.82 (0.78) % injected dose/g"},
      {"measurement": "Radioactivity Amount, Bone", "setting": "[2]; 60 min. after", "value": "2.77 (1.27) % injected dose/g"},
      {"measurement": "Radioactivity Amount, Brain", "setting": "[2]; 2 min. after", "value": "5.67 (0.48) % injected dose/g"},
      {"measurement": "Radioactivity Amount, Brain", "setting": "[2]; 10 min. after", "value": "6.39 (0.51) % injected dose/g"},
      {"measurement": "Radioactivity Amount, Brain", "setting": "[2]; 30 min. after", "value": "3.73 (0.50) % injected dose/g"},
      {"measurement": "Radioactivity Amount, Brain", "setting": "[2]; 60 min. after", "value": "2.61 (0.37) % injected dose/g"},
      {"measurement": "Radioactivity Amount, Heart", "setting": "[2]; 2 min. after", "value": "8.50 (1.40) % injected dose/g"},
      {"measurement": "Radioactivity Amount, Heart", "setting": "[2]; 10 min. after", "value": "4.19 (0.47) % injected dose/g"},
      {"measurement": "Radioactivity Amount, Heart", "setting": "[2]; 30 min. after", "value": "3.29 (0.68) % injected dose/g"},
      {"measurement": "Radioactivity Amount, Heart", "setting": "[2]; 60 min. after", "value": "3.74 (0.72) % injected dose/g"},
      {"measurement": "Radioactivity Amount, Intestine", "setting": "[2]; 2 min. after", "value": "2.56 (0.10) % injected dose/g"},
      {"measurement": "Radioactivity Amount, Intestine", "setting": "[2]; 10 min. after", "value": "5.27 (0.27) % injected dose/g"},
      {"measurement": "Radioactivity Amount, Intestine", "setting": "[2]; 30 min. after", "value": "9.82 (1.43) % injected dose/g"},
      {"measurement": "Radioactivity Amount, Intestine", "setting": "[2]; 60 min. after", "value": "12.3 (0.79) % injected dose/g"},
      {"measurement": "Radioactivity Amount, Kidney", "setting": "[2]; 2 min. after", "value": "10.7 (0.96) % injected dose/g"},
      {"measurement": "Radioactivity Amount, Kidney", "setting": "[2]; 10 min. after", "value": "6.66 (0.45) % injected dose/g"},
      {"measurement": "Radioactivity Amount, Kidney", "setting": "[2]; 30 min. after", "value": "4.19 (0.78) % injected dose/g"},
      {"measurement": "Radioactivity Amount, Kidney", "setting": "[2]; 60 min. after", "value": "3.30 (0.39) % injected dose/g"},
      {"measurement": "Radioactivity Amount, Liver", "setting": "[2]; 2 min. after", "value": "10.3 (1.00) % injected dose/g"},
      {"measurement": "Radioactivity Amount, Liver", "setting": "[2]; 10 min. after", "value": "9.83 (0.22) % injected dose/g"},
      {"measurement": "Radioactivity Amount, Liver", "setting": "[2]; 30 min. after", "value": "6.91 (0.81) % injected dose/g"},
      {"measurement": "Radioactivity Amount, Liver", "setting": "[2]; 60 min. after", "value": "6.65 (0.90) % injected dose/g"},
      {"measurement": "Radioactivity Amount, Lung", "setting": "[2]; 2 min. after", "value": "8.94 (1.76) % injected dose/g"},
      {"measurement": "Radioactivity Amount, Lung", "setting": "[2]; 10 min. after", "value": "4.59 (1.07) % injected dose/g"},
      {"measurement": "Radioactivity Amount, Lung", "setting": "[2]; 30 min. after", "value": "3.51 (0.44) % injected dose/g"},
      {"measurement": "Radioactivity Amount, Lung", "setting": "[2]; 60 min. after", "value": "3.39 (0.14) % injected dose/g"},
      {"measurement": "Radioactivity Amount, Pancreas", "setting": "[2]; 2 min. after", "value": "6.55 (0.63) % injected dose/g"},
      {"measurement": "Radioactivity Amount, Pancreas", "setting": "[2]; 10 min. after", "value": "4.74 (0.42) % injected dose/g"},
      {"measurement": "Radioactivity Amount, Pancreas", "setting": "[2]; 30 min. after", "value": "2.73 (0.50) % injected dose/g"},
      {"measurement": "Radioactivity Amount, Pancreas", "setting": "[2]; 60 min. after", "value": "2.74 (0.19) % injected dose/g"},
      {"measurement": "Radioactivity Amount, Spleen", "setting": "[2]; 2 min. after", "value": "2.86 (0.66) % injected dose/g"},
      {"measurement": "Radioactivity Amount, Spleen", "setting": "[2]; 10 min. after", "value": "4.09 (0.33) % injected dose/g"},
      {"measurement": "Radioactivity Amount, Spleen", "setting": "[2]; 30 min. after", "value": "2.66 (0.57) % injected dose/g"},
      {"measurement": "Radioactivity Amount, Spleen", "setting": "[2]; 60 min. after", "value": "3.07 (0.68) % injected dose/g"},
      {"measurement": "Radioactivity Amount, Stomach*", "setting": "[2]; 2 min. after", "value": "1.09 (0.05) % injected dose per organ"},
      {"measurement": "Radioactivity Amount, Stomach*", "setting": "[2]; 10 min. after", "value": "1.64 (0.28) % injected dose per organ"},
      {"measurement": "Radioactivity Amount, Stomach*", "setting": "[2]; 30 min. after", "value": "1.98 (0.47) % injected dose per organ"},
      {"measurement": "Radioactivity Amount, Stomach*", "setting": "[2]; 60 min. after", "value": "2.06 (0.46) % injected dose per organ"},
      {"measurement": "visualization of gray matter / amyloid plaques by autoradiography", "setting": "[3]", "value": "amyloid plaques were visualized"}
    ]}
  ]
}
